Key:
[1] = In vivo toxicity testing: complete blood counts, renal and liver function tests; conditions: C57 healthy mice
Description: However myelotoxicity has been a challenge, resulting in delay in treatment cycles and infectious complications. Hematopoietic toxicity was partly alleviated by the administration of G-CSF [32] and allowed dose-escalation. […] Overcoming hematopoietic and organ toxicities will allow us to administer chemotherapy at a higher dose and at a shorter interval, which can potentially result in better cure rates. […] This was also seen in the in vivo toxicity study in C57 healthy mice where hematologic toxicity was not observed at day 10 after 5 doses of BO-1055 at 30mg/kg/dose (Supplementary Table 1). […]
Supplementary table 1. Complete blood counts, renal and […] function tests in C57 healthy mice (n=4 per group) in control and treatment groups. Treatment group received BO--1055 at 30mg/kg/dose on days […]
Control group BO--1055 group Control group BO--1055 group baseline baseline day 10 day 10
Mean SD Mean SD Mean SD Mean SD

[2] = tested on: cord blood CD34+ cells; assay: Comet assay; assay type: cell-based, human; conditions: 3h
Protocol: We used comet assay, which includes single cell gel electrophoresis to assess DNA breaks when exposed to radiation or DNA damaging agents. […] Olive moment (micrometers), a product of tail DNA% and the distance between the centroids of head and tail, is an accurate parameter of DNA damage. […] Gamma-H2AX (γH2AX) phosphorylation is the initial step in DNA damage response following double stranded breaks and is responsible for recruiting DNA repair proteins.
Comet assay was performed according to the protocol described earlier. Cells were treated with BO-1055 at 2μM concentration for 3h, or immediately after exposure to 8Gy radiation after which they were isolated and mixed with 1% low melting point agarose in a tube. The cells in agarose were transferred to slides coated with normal melting point agarose. The agarose-immobilized cells were lysed in alkaline solution and the agarose trapped DNA was electrophoresed. DNA was stained with ethidium bromide and image acquisition was done immediately. DNA damage quantification was performed using OpenComet v1.3, an open-source software plugin in Image J 1.47v software (NIH, USA) for automated analysis. Olive moment, which is the product of tail DNA% and the distance between the intensity-weighted centroids of head and tail was taken from the output for analysis.

[3] = 30mg/kg/dose on days 1,3,5,8 and 10, day 10, mean, n=4

CN(C)CCNC(=O)c1cccc(NC(=O)Nc2ccc(N(CCCl)CCCl)cc2)c1 [BO-1055]
ALT [1, 3]: 89.50 U/L
AST [1, 3]: 74.25 U/L
BASO [1, 3]: 0.45%
BASO# [1, 3]: 0.02 K/uL
BUN [1, 3]: 24.50 mg/dL
BUN/CREA ratio [1, 3]: 125.40
CREA [1, 3]: 0.20 mg/dL
DBIL [1, 3]: 0.00 mg/dL
EO [1, 3]: 2.93%
EO# [1, 3]: 0.13 K/uL
GLU [1, 3]: 166.00 mg/dL
HCT [1, 3]: 46.30%
HGB [1, 3]: 13.08 g/dL
IBIL [1, 3]: 0.13 mg/dL
LYMPH [1, 3]: 51.63%
LYMPH# [1, 3]: 2.90 K/uL
MCH [1, 3]: 14.40 pg
MCHC [1, 3]: 28.28 g/dL
MCV [1, 3]: 51.03 fL
MONO [1, 3]: 7.80%
MONO# [1, 3]: 0.39 K/uL
MPV [1, 3]: 6.38 fL
NEUT [1, 3]: 37.20%
NEUT# [1, 3]: 1.90 K/uL
PDW [1, 3]: 7.40 fL
PLT [1, 3]: 1108.25 K/uL
RBC [1, 3]: 9.08 M/uL
RDW-CV [1, 3]: 23.18%
RDW-SD [1, 3]: 32.48 fL
RET [1, 3]: 4.72%
RET# [1, 3]: 426.88 K/uL
TBIL [1, 3]: 0.23 mg/dL
TP [1, 3]: 3.77 g/dL
WBC# [1, 3]: 5.34 K/uL
change in hematocrit, platelet count or neutrophil count ([1]; day 10): did not reveal a significant change
hematologic toxicity ([1]; day 10 after 5 doses at 30mg/kg/dose): not observed
olive moment relative to radiation (XRT, 8Gy) [2]: relatively less
